Among the data in patent publication US11590139B2, “Substituted aminopurine compounds, compositions thereof, and methods of treatment therewith” (Signal Pharmaceuticals, LLC, priority 2014, dated 2023) are IC50 values, retold here.

SMILES strings stand for the structures.

The first experiment relates to Lox-IMVI melanoma cell line. The experiment can be described thus: Lox-IMVI anti-proliferative assay (growth inhibition, Cell Titer-Glo). Format: cell-based, human. The following applies: Homo sapiens; IC50 activity level in the cell-based Lox-IMVI anti-proliferative assay; read-out: Activity. A digest of the protocol:
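Cells grown in RPMI + 10% FBS were exposed to compound at 0.5 nM to 10 μM (10-point, 3-fold dilution, duplicate, 0.2% DMSO final) for 72 h at 37 °C, 5% CO2. Viability was read by ATP luminescence at t0 and 72 h. IC50 came from a four-parameter logistic fit normalized to DMSO control.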
For orientation: Cellular ATP, detected with luciferase, serves as a proxy for viable cell number.
Turning to `NC(=O)[C@H]1CC[C@@H](n2c(Nc3c(F)ccc(Cl)c3F)nc3cnc(N[C@@H]4CCC[C@H]4O)nc32)CC1` [Example 259, (1S,4s)-4-(8-(3-chloro-2,6-difluorophenylamino)-2-((1R,2R)-2-hydroxycyclopentylamino)-9H-purin-9-yl)cyclohexanecarboxamide], the IC50 was over 1000 nM. Still for that read-out and setting: under `NC(=O)[C@H]1CC[C@@H](n2c(Nc3c(Cl)cc(Cl)cc3Cl)nc3cnc(N[C@@H]4CCOC[C@@H]4F)nc32)CC1` [Example 302, (1S,4s)-4-(2-((3R,4R)-3-fluorotetrahydro-2H-pyran-4-ylamino)-8-(2,4,6-trichlorophenylamino)-9H-purin-9-yl)cyclohexanecarboxamide] stands 500 to 1000 nM; under `NC(=O)[C@H]1CC[C@@H](n2c(Nc3c(Cl)cc(F)cc3Cl)nc3cnc(N[C@@H]4CCC[C@H](O)C4)nc32)CC1` [Example 354, (1S,4s)-4-(8-(2,6-dichloro-4-fluorophenylamino)-2-((1R,3S)-3-hydroxycyclohexylamino)-9H-purin-9-yl)cyclohexanecarboxamide], 500 to 1000 nM; under `NC(=O)[C@H]1CC[C@@H](n2c(Nc3c(Cl)cc(Cl)cc3Cl)nc3cnc(N[C@@H]4CC[C@H](O)C4)nc32)CC1` [Example 333, (1S,4s)-4-(2-((1R,3S)-3-hydroxycyclopentylamino)-8-(2,4,6-trichlorophenylamino)-9H-purin-9-yl)cyclohexanecarboxamide], 500 to 1000 nM. As to `NC(=O)[C@H]1CC[C@@H](n2c(Nc3c(F)cc(F)cc3F)nc3cnc(N[C@H]4C[C@H](O)C4)nc32)CC1` [Example 279, (1s,4s)-4-(2-((1r,3r)-3-hydroxycyclobutylamino)-8-(2,4,6-trifluorophenylamino)-9H-purin-9-yl)cyclohexanecarboxamide], the IC50 is over 1000 nM. Still for that read-out and setting: under `NC(=O)[C@H]1CC[C@@H](n2c(Nc3ccc(Cl)c(F)c3Cl)nc3cnc(NC4CCOCC4)nc32)CC1` [Example 82, (1s,4s)-4-(8-(2,4-dichloro-3-fluorophenylamino)-2-(tetrahydro-2H-pyran-4-ylamino)-9H-purin-9-yl)cyclohexanecarboxamide] stands over 1000 nM; under `Cc1cc(Cl)c(Nc2nc3cnc(NC4CCOCC4)nc3n2[C@H]2CC[C@@H](C(N)=O)CC2)cc1C` [Example 101, (1s,4s)-4-(8-(2-chloro-4,5-dimethylphenylamino)-2-(tetrahydro-2H-pyran-4-ylamino)-9H-purin-9-yl)cyclohexanecarboxamide], over 1000 nM. On the same count and under the same terms, next, `NC(=O)[C@H]1CC[C@@H](n2c(Nc3c(Cl)cccc3Cl)nc3cnc(N[C@@H]4CCC[C@H](O)C4)nc32)CC1` [Example 349, (1S,4s)-4-(8-(2,6-dichlorophenylamino)-2-((1R,3S)-3-hydroxycyclohexylamino)-9H-purin-9-yl)cyclohexanecarboxamide]: over 1000 nM; `NC(=O)[C@H]1CC[C@@H](n2c(Nc3c(F)cc(F)cc3Cl)nc3cnc(N[C@@H]4CCC[C@H](O)C4)nc32)CC1` [Example 351, (1S,4s)-4-(8-(2-chloro-4,6-difluorophenylamino)-2-((1R,3S)-3-hydroxycyclohexylamino)-9H-purin-9-yl)cyclohexanecarboxamide]: over 1000 nM; `Cc1cc(F)cc(Cl)c1Nc1nc2cnc(NC3CCOCC3)nc2n1[C@H]1CC[C@@H](C(N)=O)CC1` [Example 74, (1s,4s)-4-(8-(2-chloro-4-fluoro-6-methylphenylamino)-2-(tetrahydro-2H-pyran-4-ylamino)-9H-purin-9-yl)cyclohexanecarboxamide]: over 1000 nM. For the molecule `NC(=O)[C@H]1CC[C@@H](n2c(Nc3c(F)cc(F)cc3Cl)nc3cnc(N[C@H]4CCCOC4)nc32)CC1` [Example 245, (1R,4s)-4-(8-(2-chloro-4,6-difluorophenylamino)-2-((S)-tetrahydro-2H-pyran-3-ylamino)-9H-purin-9-yl)cyclohexanecarboxamide], the IC50 was over 1000 nM.

Staying with this experiment, now noted: Homo sapiens; Lox-IMVI anti-proliferative assay, IC50 activity level; read-out: Activity.
`CC[C@@H](CO)Nc1ncc2nc(Nc3c(F)cc(C#N)cc3Cl)n([C@H]3CC[C@@H](C(N)=O)CC3)c2n1` [Example 433, (1R,4s)-4-(8-(2-chloro-4-cyano-6-fluorophenylamino)-2-((S)-1-hydroxybutan-2-ylamino)-9H-purin-9-yl)cyclohexanecarboxamide]: the IC50 is over 1000 nM.

`N#Cc1cc(F)c(Nc2nc3cnc(NC4CC(F)(F)C4)nc3n2[C@H]2CC[C@@H](C(N)=O)CC2)c(Cl)c1` [Example 400, (1s,4s)-4-(8-(2-chloro-4-cyano-6-fluorophenylamino)-2-(3,3-difluorocyclobutylamino)-9H-purin-9-yl)cyclohexanecarboxamide]: the IC50 is 500 to 1000 nM. Same read-out and setting: next, `C[C@@H](CO)Nc1ncc2nc(Nc3c(F)cc(F)cc3Cl)n([C@H]3CC[C@@](C)(C(N)=O)CC3)c2n1` [Example 548, (1R,4s)-4-(8-(2-chloro-4,6-difluorophenylamino)-2-((S)-1-hydroxypropan-2-ylamino)-9H-purin-9-yl)-1-methylcyclohexanecarboxamide]: under 250 nM; `C[C@]1(C(N)=O)CC[C@@H](n2c(Nc3c(F)cc(F)cc3Cl)nc3cnc(NC4CC(F)(F)C4)nc32)CC1` [Example 579, (1s,4s)-4-(8-(2-chloro-4,6-difluorophenylamino)-2-(3,3-difluorocyclobutylamino)-9H-purin-9-yl)-1-methylcyclohexanecarboxamide]: under 250 nM. For `NC(=O)[C@H]1CC[C@@H](n2c(Nc3c(Cl)cc(OC(F)(F)F)cc3Cl)nc3cnc(NC4CCC(F)(F)CC4)nc32)CC1` [Example 596, (1s,4s)-4-(8-(2,6-dichloro-4-(trifluoromethoxy)phenylamino)-2-(4,4-difluorocyclohexylamino)-9H-purin-9-yl)cyclohexanecarboxamide], the IC50 was over 1000 nM.

With `C[C@]1(C(N)=O)CC[C@@H](n2c(Nc3c(Cl)cc(C#N)cc3Cl)nc3cnc(NC4CCOCC4)nc32)CC1` [Example 535, (1s,4s)-4-(8-(2,6-dichloro-4-cyanophenylamino)-2-(tetrahydro-2H-pyran-4-ylamino)-9H-purin-9-yl)-1-methylcyclohexanecarboxamide], the IC50 is under 250 nM. Same read-out and setting: next, `C[C@H]1COCC[C@H]1Nc1ncc2nc(Nc3c(F)cc(Cl)cc3F)n([C@H]3CC[C@@H](C(N)=O)CC3)c2n1` [Example 508, (1S,4s)-4-(8-(4-chloro-2,6-difluorophenylamino)-2-((3R,4R)-3-methyltetrahydro-2H-pyran-4-ylamino)-9H-purin-9-yl)cyclohexanecarboxamide]: 500 to 1000 nM. As for `CC(C)Nc1ncc2nc(Nc3c(F)cc(C#N)cc3F)n([C@H]3CC[C@@H](C(N)=O)CC3)c2n1` [Example 441, (1s,4s)-4-(8-(4-cyano-2,6-difluorophenylamino)-2-(isopropylamino)-9H-purin-9-yl)cyclohexanecarboxamide], the IC50 was 500 to 1000 nM.

Staying with this experiment, now noted: Homo sapiens; Lox-IMVI anti-proliferative assay, cell-based; read-out: Activity (IC50 activity level).
Turning to `CC(=O)N1CCC[C@@H](Nc2ncc3nc(Nc4c(Cl)cc(F)cc4Cl)n([C@H]4CC[C@@H](C(N)=O)CC4)c3n2)C1` [Example 799, (1S,4s)-4-(2-((R)-1-acetylpiperidin-3-ylamino)-8-(2,6-dichloro-4-fluorophenylamino)-9H-purin-9-yl)cyclohexanecarboxamide], the IC50 is over 1000 nM.

Staying with this experiment, now noted: Homo sapiens; Lox-IMVI melanoma cell line, anti-proliferative assay; read-out: Activity (IC50 activity level).
Regarding `CC(C)N1CCC[C@@H](Nc2ncc3nc(Nc4c(F)cc(Cl)cc4F)n([C@H]4CC[C@@H](C(N)=O)CC4)c3n2)C1` [Example 740, (1S,4s)-4-(8-(4-chloro-2,6-difluorophenylamino)-2-((R)-1-isopropylpiperidin-3-ylamino)-9H-purin-9-yl)cyclohexanecarboxamide], the IC50 is over 1000 nM. On to `Cc1ccc(S(=O)(=O)N2CCC[C@@H](Nc3ncc4nc(Nc5c(Cl)cc(C#N)cc5Cl)n([C@H]5CC[C@@H](C(N)=O)CC5)c4n3)C2)cc1` [Example 789, (1S,4s)-4-(8-(2,6-dichloro-4-cyanophenylamino)-2-((R)-1-tosylpiperidin-3-ylamino)-9H-purin-9-yl)cyclohexanecarboxamide], for which the IC50 is over 1000 nM. With `C[C@]1(C(N)=O)CC[C@@H](n2c(Nc3c(F)cc(F)cc3F)nc3cnc(N[C@H]4CC[C@H](O)C4)nc32)CC1` [Example 643, (1R,4s)-4-(2-((1S,3S)-3-hydroxycyclopentylamino)-8-(2,4,6-trifluorophenylamino)-9H-purin-9-yl)-1-methylcyclohexanecarboxamide], the IC50 lay within 500 to 1000 nM. Regarding `C[C@]1(C(N)=O)CC[C@@H](n2c(Nc3c(Cl)cc(C#N)cc3Cl)nc3cnc(N[C@@H]4CCOC[C@H]4F)nc32)CC1` [Example 760, (1S,4s)-4-(8-(2,6-dichloro-4-cyanophenylamino)-2-((3S,4R)-3-fluorotetrahydro-2H-pyran-4-ylamino)-9H-purin-9-yl)-1-methylcyclohexanecarboxamide], the IC50 was under 250 nM. As to `N#Cc1cc(F)c(Nc2nc3cnc(N[C@@H]4CCCN(Cc5ccccc5)C4)nc3n2[C@H]2CC[C@@H](C(N)=O)CC2)c(F)c1` [Example 755, (1S,4s)-4-(2-((R)-1-benzylpiperidin-3-ylamino)-8-(4-cyano-2,6-difluorophenylamino)-9H-purin-9-yl)cyclohexanecarboxamide], the IC50 is over 1000 nM. For the molecule `CC(C)OC(=O)N1CCC[C@@H](Nc2ncc3nc(Nc4c(Cl)cc(C#N)cc4Cl)n([C@H]4CC[C@@H](C(N)=O)CC4)c3n2)C1` [Example 769, (R)-isopropyl 3-(9-((1s,4S)-4-carbamoylcyclohexyl)-8-(2,6-dichloro-4-cyanophenylamino)-9H-purin-2-ylamino)piperidine-1-carboxylate], the IC50 is 500 to 1000 nM. On the same count and under the same terms, next, `C[C@]1(C(N)=O)CC[C@@H](n2c(Nc3c(F)cc(Cl)cc3Cl)nc3cnc(NC4CC(F)(F)C4)nc32)CC1` [Example 651, (1s,4s)-4-(8-(2,4-dichloro-6-fluorophenylamino)-2-(3,3-difluorocyclobutylamino)-9H-purin-9-yl)-1-methylcyclohexanecarboxamide]: under 250 nM.
